One series can be described thus: Log P in octanol. The format is physicochemical. Here is the method:
(§1) The melting range of Compound I is from 120.5-151° C. In both Samples 4A and 4B, the drug loading is 4% or 20 mg/capsule.

The nature of another series: Solubility of Compound I. The format is physicochemical. The procedure:
as §1

≈ marks a conversion by molar mass, not a printed value.

Broadly, the solubility is the concentration that dissolves in the medium under given conditions. Read a high solubility as much dissolved substance.

Consider `COC(=O)N[C@]1(C)Cc2ccc(NC(=O)c3cccc(C)c3-c3ccc(C(F)(F)F)cc3)cc2C1` [Compound I], for which the “Log P in octanol” value in “Log P in octanol” turned out to be 4.66. Besides, the solubility in the series “Solubility of Compound I” turned out to be 0.17 µg/mL (≈ 0.352 µM).

For the origin of these results see patent publication US20080064760A1, “Spontaneously Dispersible Pharmaceutical Composition” (priority 2004, published 2008).
